These results are taken from US6099845A, “Process for the preparation of Rhus verniciflua extract and anti-cancer composition containing same” (Forest Genetics Research Institute, priority 1997, dated 2000).

In one assay the test system is LamB1 gene. The format is cell-based, mouse. The settings on record: F9 cells, 7 days; FIG. 8.
In a further assay the test system is F9 teratocarcinoma cells. The settings on record: cited from earlier work.
The subject of the next assay is angiogenesis. Particulars: cited from earlier work.
In another assay the test system is cancer cells. The settings on record: cited from earlier work.
The test system of a further assay is cancer. The settings on record: cited from earlier work.
Assay [1] concerns blood vessel and capillary. The settings on record: cited from earlier work.
For assay [2], the system named is formation of peroxidized lipids. The settings on record: cited from earlier work.
Assay [3] has as its system allergy and dermatopathies. Particulars: cited from earlier work.
Assay [4] can be described thus: DPPH free radical decolorization (anti-oxidative activity). The format is biochemical. Particulars: 0.04% ethanol solution, 30 min, room temperature, 517 nm. The protocol:
DPPH(1,1-diphenyl-2-picrylhydrazyl) is a free radical which is very stable in an organic solution. […] Accordingly, it is advantageously employed in measuring anti-oxidative activity of a material.
DPPH was dissolved in absolute ethanol to a concentration of […]("DPPH ethanol solution"). To this solution, the extract of R. verniciflua obtained in Example 1 and Sesamol (Sigma, U.S.A.), a natural anti-oxidant were added to a concentration of 0.04%, respectively to obtain an "extract ethanol solution" and a "Sesamol ethanol solution".
2 ml of the DPPH ethanol solution was put into each of two 4 me disposable spectrophotometer cuvettes(Muller ratiolab, Germany). Then, 2 ml of the extract ethanol solution was placed in one cuvette and 2 ml of the Sesamol ethanol solution was put into the other cuvette. The mixtures were reacted at room temperature for 30 min. As a control, a cuvette containing 4 ml of the DPPH ethanol solution was used. The absorption of each cuvette was determined at 517 nm with a spectrophotometer(HP 8453 diode array spectrophotometer). The absorption of the extract ethanol solution was calibrated with the absorption of the control, and the capability of the extract ethanol solution to decolorize the purple color of the DPPH ethanol solution was calculated based on the calibrated absorption of the Sesamol ethanol solution.

The structures appear in SMILES notation. “Also recorded” adds a separate entry of the source.

`CC1=C(/C=C/C(C)=C/C=C/C(C)=C/C(=O)O)C(C)(C)CCC1` [retinoic acid]: in the assay with LamB1 gene, the “expression of LamB1 gene (northern blotting)” value is listed as “converts the gene of the cancer cell to express LamBl gene”. For the same compound, the “differentiation of F9 teratocarcinoma cells (in words)” value in the assay on F9 teratocarcinoma cells is on record as “transforms into a primitive developmental form”. Further, the “inhibitory activity on angiogenesis (in words)” value (shortened to “inhibitory activity”) with angiogenesis is recorded as “inhibit angiogenesis”. The “differentiation of cancer cells (in words)” value in the assay with cancer cells is “induce the differentiation of cancer cells to normal cells”.
Regarding `C=C1CCC(O)CC1=CC=C1CCCC2(C)C1CCC2C(C)CCCC(C)C` (stereo not shown) [vitamin D3], in the assay on angiogenesis, the “inhibitory activity” value was “inhibit angiogenesis”. For the same compound, the “differentiation of cancer cells (in words)” value in the assay with cancer cells is recorded as “induce the differentiation of cancer cells to normal cells”.
Consider `CC1CCC2(C(=O)O)CCC3(C)C(=CCC4C5(C)CCC(O)C(C)(C)C5CCC43C)C2C1C` (stereo not shown) [urusolic acid], for which, in the assay on F9 teratocarcinoma cells, the “differentiation of F9 teratocarcinoma cells (in words)” value is on record as “capable of differentiating F9 teratocarcinoma cells into normal cells; also recorded: induce the differentiation of F9 teratocarcinoma cells by regulating the gene involved in the differentiation”. Moreover, in the assay with angiogenesis, the “inhibitory activity” value was “some inhibitory activity on angiogenesis”. Moreover, in the assay on cancer, the “anti-cancer activity (in words)” value is “have anti-cancer activity”.
Consider `O=c1c(O)c(-c2ccc(O)c(O)c2)oc2cc(O)ccc12` (single isomer, unassigned) [Fisetin, 3,3',4',7-tetrahydroxyflavone], for which the “protecting blood vessel and capillary” value in assay [1] was “protecting blood vessel and capillary”. Besides, the “suppressing the formation of peroxidized lipids” value in [2] is listed as “suppressing the formation of peroxidized lipids”. For the same compound, in assay [3], the “inhibiting allergy and dermatopathies” value is “inhibiting allergy and dermatopathies”.
Turning to `Oc1ccc2c(c1)OCO2` [Sesamol], the “anti-oxidative activity relative to Sesamol's 100” value in assay [4] amounted to 100.
For the compound `O=C1c2ccc(O)cc2OC(c2ccc(O)c(O)c2)C1O` (single isomer, unassigned) [fustin, 3,3',4',7-tetrahydroxyflavanone], the “protecting blood vessel and capillary” value in assay [1] is “protecting blood vessel and capillary”. In addition, the “suppressing the formation of peroxidized lipids” value in [2] is given as “suppressing the formation of peroxidized lipids”. In addition, in [3], the “inhibiting allergy and dermatopathies” value was “inhibiting allergy and dermatopathies”.
As for `CC1(C)CC[C@]2(C(=O)O)CC[C@]3(C)C(=CC[C@@H]4[C@@]5(C)CC[C@H](O)C(C)(C)[C@@H]5CC[C@]43C)[C@@H]2C1` [oleanolic acid], the “differentiation of F9 teratocarcinoma cells (in words)” value in the assay on F9 teratocarcinoma cells is listed as “capable of differentiating F9 teratocarcinoma cells into normal cells; also recorded: induce the differentiation of F9 teratocarcinoma cells by regulating the gene involved in the differentiation”. Besides, in the assay on angiogenesis, the “inhibitory activity” value is “some inhibitory activity on angiogenesis”. In addition, the “anti-cancer activity (in words)” value in the assay with cancer is “have anti-cancer activity”.
